Assay results from US20010034322A1, “Taxol-like protein (TALP) and process for preparing the same” (priority 1996, published 2001).

Experiments:
Format in all cases: biochemical
tubulin [1] = test: effect of Ca2+ on microtubules assembled by GTP, taxol or TALP; settings: 4 mM CaCl2
Method: To investigate effect of Ca^2+ on tubulin polymerization, tubulin was added to 0.1M MES buffer(pH 6.8) free of EGTA, and GTP, taxol or TALP was added, and polymerization of microtubules were carried out at 37° C. for 15 minutes. Then, 4 mM CaCl2 was added to the reaction mixture, and depolymerization of microtubules assembled was measured, with the addition of GTP, taxol or TALP(see: FIG. 5).

tubulin [2] = test: electron microscopic analysis of microtubules; settings: tubulin 1 mg/ml, 37° C., 30 minutes
Method: When tubulin polymerization was monitored by measuring the absorbance as in Example 1, increase in the absorbance may occur not only by microtubule assembly but also by the aggregation of tubulins. Thus, in order to confirm that the turbidity change is caused by microtubule assembly, the morphology of the polymers was examined with electron microscopy. Tubulin was added to 0.1M MES buffer to a concentration of 1 mg/ml, and GTP, taxol or TALP was added to a final reaction volume of 250 μl. The reaction mixture was incubated at 37° C. for 30 minutes, and the absorbance change at 350 nm was monitored. At this time, the reaction solutions showing increase in the absorbance were fixed and applied to a carbon-coated grids, and dried. Grids were then stained with 1% uranyl acetate for 5 minutes, washed with distilled water, and dried. And then, they were examined with electron microscope(Hitachi H-600, Japan) at an accelerated voltage of 75 kv.

tubulin [3] = test: effect of cold temperature (4° C.) on microtubules assembled by GTP, taxol or TALP; settings: chilled to 4° C.
Method: To investigate effect of cold temperature on tubulin polymerization, tubulin was added to 0.1M MES buffer(pH 6.8). Then GTP, taxol or TALP was added to the reaction mixture, and polymerization of microtubules were carried out at 37° C. for 15 minutes. Then, the reaction solution was chilled to a temperature of 4° C., and depolymerization of microtubules assembled was measured, with the addition of GTP, taxol or TALP(see: FIG. 6).

[4] = system: tubulin isolated from bovine brain; test: coprecipitation of tubulin and TALP (centrifugation, SDS-PAGE of supernatants and pellets); settings: tubulin 0.4 mg/ml, 37° C., 30 minutes
Method: To investigate whether TALP promotes microtubule assembly in the same manner as taxol, tubulin isolated from bovine brain was added to 0.1M MES buffer(pH 6.8) to a concentration of 0.4 mg/ml. Then, 2 mM GTP, 10 μM taxol or 4 μM TALP was added to the reaction mixture, and polymerization of microtubules were carried out at 37° C. for 30 minutes. The reaction mixtures were centrifuged for 20 minutes, and the supernatants and the pellets thus obtained were analyzed by 12% SDS-PAGE(see: FIG. 7(A)).
Also, tubulin polymerization was investigated with the variation of TALP concentration. […] In FIGS. 7(A) and 7(B), S and P designate supernatant and pellet, respectively.

tubulin [5] = test: tubulin polymerization monitored by turbidity (absorbance at 350 nm); settings: 20 μM taxol; control 2 mM GTP
Method: All of the purification steps were carried out under 4° C., and TALP activity was determined by the conventional tubulin polymerization which was monitored by turbidity(see: Gaskin, F. et al., 1974, J. Mol. Biol., 89:737-758): Tubulin prepared according to the method of Hamel et al. or Asnes et al.(see: Hamel E. et al., 1981, Arch. Biochem. Biophys., 209:29-40; Asnes, C. F. and Wilson, L., 1979, Anal. Biochem., 98:64-73) was added to 0.1M MES(2-[N-morpholino]ethane sulfonic acid) buffer(0.1M MES containing 1 mM EGTA and 1 mM MgCl2, pH 6.8) to a final concentration of 1 mg/ml, and TALP containing solution was added to a final reaction volume of 250 μl. The reaction mixture was incubated at 37° C. for 30 minutes, and the change in absorbance at 350 nm was monitored with a Gilford Model 2600 spectrophotometer(Gilford, USA).
Effects of GTP, taxol and TALP on tubulin polymerization were examined in the same manner as described in Example 1.
When 0.5 μM of TALP was added to the reaction mixture, tubulin polymerization occurred twice or more as high as one without TALP(see: FIG. 4).

Structure (SMILES)	microtubules depolymerized by Ca2+ (tubulin [1]; assembled by 2 mM GTP)	morphology of the polymers by electron microscopy (tubulin [2])	microtubules depolymerized at 4° C. (tubulin [3]; assembled by 2 mM GTP)	tubulins polymerized ([4]; 2 mM GTP)	microtubules depolymerized by Ca2+ (tubulin [1]; assembled by 10 μM taxol) [%]	microtubules depolymerized at 4° C. (tubulin [3]; assembled by 10 μM taxol) [%]	tubulin polymerization, times as high as the control (tubulin [5]) [times]	tubulins polymerized ([4]; 10 μM taxol)
Nc1nc2c(ncn2[C@@H]2O[C@H](COP(=O)(O)OP(=O)(O)OP(=O)(O)O)[C@@H](O)[C@H]2O)c(=O)[nH]1 [GTP]	most	typical microtubules were assembled	most	most of tubulins were not polymerized	–	–	–	–
CC(=O)O[C@H]1C(=O)[C@@]2(C)[C@H]([C@H](OC(=O)c3ccccc3)[C@]3(O)C[C@H](OC(=O)[C@H](O)[C@@H](NC(=O)c4ccccc4)c4ccccc4)C(C)=C1C3(C)C)[C@]1(OC(C)=O)CO[C@@H]1C[C@@H]2O [taxol]	–	typical microtubules were assembled	–	–	30	25	2.5	about 20%
